Results from the NIST ThermoML archive (doi:10.1021/je050050p).

Experiment: xn = mol fraction of the nth substance listed
Details: Liquid, Vibrating tube method

CN(C)C=O [dimethylformamide] + O=C=O
Details	mass density [kg/m3]
323.07 K, 21005 kPa, x2 = 0.6235	955.83
323.07 K, 22029 kPa, x2 = 0.6235	957.78
323.07 K, 23012 kPa, x2 = 0.6235	959.63
323.07 K, 24020 kPa, x2 = 0.6235	961.47
323.07 K, 24979 kPa, x2 = 0.6235	963.24
323.08 K, 11047 kPa, x2 = 0.8091	888.99
323.08 K, 12004 kPa, x2 = 0.8091	893.47
323.08 K, 13042 kPa, x2 = 0.8091	898.2
323.08 K, 14006 kPa, x2 = 0.8091	902.33
323.08 K, 15005 kPa, x2 = 0.8091	906.31
323.08 K, 16016 kPa, x2 = 0.8091	910.13
323.08 K, 16989 kPa, x2 = 0.8091	913.66
323.08 K, 18023 kPa, x2 = 0.8091	917.28
323.08 K, 18997 kPa, x2 = 0.8091	920.57
323.08 K, 20018 kPa, x2 = 0.8091	923.89
323.08 K, 21002 kPa, x2 = 0.8091	927.01
323.08 K, 22041 kPa, x2 = 0.8091	930.23
323.08 K, 22980 kPa, x2 = 0.8091	933.13
323.08 K, 23989 kPa, x2 = 0.8091	936
323.08 K, 25049 kPa, x2 = 0.8091	939.12
323.09 K, 7005 kPa, x2 = 0.4268	942.62
323.09 K, 7062 kPa, x2 = 0.4461	942.94
323.09 K, 7958 kPa, x2 = 0.4461	944.11
323.09 K, 8007 kPa, x2 = 0.4268	943.86
323.09 K, 9005 kPa, x2 = 0.4268	944.97
323.09 K, 9022 kPa, x2 = 0.4461	945.39
323.09 K, 9996 kPa, x2 = 0.4268	946.2
323.09 K, 9998 kPa, x2 = 0.4461	946.6
323.09 K, 11005 kPa, x2 = 0.4461	947.83
323.09 K, 11020 kPa, x2 = 0.4268	947.43
323.09 K, 12000 kPa, x2 = 0.4268	948.52
323.09 K, 12017 kPa, x2 = 0.9311	797.65
323.09 K, 12039 kPa, x2 = 0.4461	949.09
323.09 K, 13002 kPa, x2 = 0.4461	950.23
323.09 K, 13010 kPa, x2 = 0.9311	810.33
323.09 K, 13035 kPa, x2 = 0.4268	949.74
323.09 K, 14007 kPa, x2 = 0.4268	950.83
323.09 K, 14007 kPa, x2 = 0.4461	951.42
323.09 K, 14016 kPa, x2 = 0.9311	821.48
323.09 K, 14996 kPa, x2 = 0.4461	952.54
323.09 K, 15005 kPa, x2 = 0.9311	831.25
323.09 K, 15007 kPa, x2 = 0.4268	951.95
323.09 K, 15987 kPa, x2 = 0.4268	952.99
323.09 K, 16001 kPa, x2 = 0.4461	953.67
323.09 K, 16036 kPa, x2 = 0.9311	840.41
323.09 K, 16984 kPa, x2 = 0.4268	954.11
323.09 K, 17004 kPa, x2 = 0.4461	954.83
323.09 K, 17025 kPa, x2 = 0.9311	848.46
323.09 K, 17998 kPa, x2 = 0.4268	955.17
323.09 K, 18000 kPa, x2 = 0.4461	955.98
323.09 K, 18021 kPa, x2 = 0.9311	855.96
323.09 K, 18994 kPa, x2 = 0.4461	957.05
323.09 K, 19034 kPa, x2 = 0.9311	863.06
323.09 K, 19040 kPa, x2 = 0.4268	956.31
323.09 K, 20010 kPa, x2 = 0.9311	869.5
323.09 K, 20031 kPa, x2 = 0.4461	958.19
323.09 K, 20050 kPa, x2 = 0.4268	957.38
323.09 K, 21020 kPa, x2 = 0.4461	959.24
323.09 K, 21029 kPa, x2 = 0.9311	875.82
323.09 K, 21048 kPa, x2 = 0.4268	958.44
323.09 K, 22009 kPa, x2 = 0.9311	881.6
323.09 K, 22029 kPa, x2 = 0.4461	960.34
323.09 K, 22041 kPa, x2 = 0.4268	959.46
323.09 K, 23008 kPa, x2 = 0.4461	961.38
323.09 K, 23037 kPa, x2 = 0.4268	960.49
323.09 K, 23050 kPa, x2 = 0.9311	887.36
323.09 K, 23995 kPa, x2 = 0.9311	892.39
323.09 K, 24019 kPa, x2 = 0.4461	962.44
323.09 K, 24061 kPa, x2 = 0.4268	961.52
323.09 K, 25007 kPa, x2 = 0.4461	963.48
323.09 K, 25036 kPa, x2 = 0.4268	962.52
323.09 K, 25056 kPa, x2 = 0.9311	897.78
323.1 K, 7005 kPa, x2 = 0.4502	942.87
323.1 K, 7058 kPa, x2 = 0.4068	942.59
323.1 K, 8007 kPa, x2 = 0.4068	943.65
323.1 K, 8009 kPa, x2 = 0.4502	944.1
323.1 K, 9003 kPa, x2 = 0.4502	945.32
323.1 K, 9034 kPa, x2 = 0.4068	944.82
323.1 K, 10001 kPa, x2 = 0.4068	945.91
323.1 K, 10005 kPa, x2 = 0.4502	946.57
323.1 K, 11002 kPa, x2 = 0.4502	947.78
323.1 K, 11013 kPa, x2 = 0.4068	947.04
323.1 K, 12000 kPa, x2 = 0.4068	948.11
323.1 K, 12012 kPa, x2 = 0.4502	948.99
323.1 K, 12998 kPa, x2 = 0.4068	949.23
323.1 K, 13022 kPa, x2 = 0.4502	950.22
323.1 K, 13979 kPa, x2 = 0.4068	950.27
323.1 K, 14010 kPa, x2 = 0.4502	951.35
323.1 K, 15004 kPa, x2 = 0.4068	951.37
323.1 K, 15007 kPa, x2 = 0.4502	952.52
323.1 K, 16001 kPa, x2 = 0.4068	952.41
323.1 K, 16010 kPa, x2 = 0.4502	953.67
323.1 K, 16989 kPa, x2 = 0.4068	953.45
323.1 K, 17008 kPa, x2 = 0.4502	954.76
323.1 K, 18013 kPa, x2 = 0.4502	955.9
323.1 K, 18017 kPa, x2 = 0.4068	954.51
323.1 K, 18998 kPa, x2 = 0.4068	955.51
323.1 K, 19001 kPa, x2 = 0.4502	956.99
323.1 K, 19996 kPa, x2 = 0.4502	958.07
323.1 K, 20005 kPa, x2 = 0.4068	956.52
323.1 K, 20986 kPa, x2 = 0.4068	957.5
323.1 K, 21010 kPa, x2 = 0.4502	959.2
323.1 K, 22004 kPa, x2 = 0.4502	960.27
323.1 K, 22021 kPa, x2 = 0.4068	958.56
323.1 K, 22997 kPa, x2 = 0.4502	961.32
323.1 K, 22998 kPa, x2 = 0.4068	959.49
323.1 K, 23987 kPa, x2 = 0.4068	960.47
323.1 K, 23995 kPa, x2 = 0.4502	962.39
323.1 K, 25019 kPa, x2 = 0.4502	963.43
323.1 K, 25057 kPa, x2 = 0.4068	961.5
323.15 K, 5022 kPa, x2 = 0.2876	937.32
323.15 K, 6019 kPa, x2 = 0.2876	938.29
323.15 K, 7007 kPa, x2 = 0.2876	939.23
323.15 K, 8008 kPa, x2 = 0.2876	940.16
323.15 K, 9023 kPa, x2 = 0.2876	941.14
323.15 K, 10001 kPa, x2 = 0.2876	942.04
323.15 K, 11006 kPa, x2 = 0.2876	942.98
323.15 K, 12003 kPa, x2 = 0.2876	943.9
323.15 K, 13004 kPa, x2 = 0.2876	944.81
323.15 K, 14005 kPa, x2 = 0.2876	945.73
323.15 K, 14999 kPa, x2 = 0.2876	946.61
323.15 K, 15994 kPa, x2 = 0.2876	947.48
323.15 K, 17022 kPa, x2 = 0.2876	948.41
323.15 K, 17996 kPa, x2 = 0.2876	949.25
323.15 K, 19004 kPa, x2 = 0.2876	950.13
323.15 K, 20021 kPa, x2 = 0.2876	950.99
323.15 K, 21018 kPa, x2 = 0.2876	951.84
323.15 K, 22030 kPa, x2 = 0.2876	952.68
323.15 K, 23007 kPa, x2 = 0.2876	953.51
323.15 K, 24019 kPa, x2 = 0.2876	954.35
323.15 K, 25012 kPa, x2 = 0.2876	955.16
332.96 K, 10005 kPa, x2 = 0.6235	907.82
332.96 K, 10991 kPa, x2 = 0.6235	910.93
332.96 K, 12056 kPa, x2 = 0.6235	913.98
332.96 K, 13000 kPa, x2 = 0.6235	916.59
332.96 K, 14042 kPa, x2 = 0.6235	919.37
332.96 K, 15010 kPa, x2 = 0.6235	921.91
332.96 K, 15997 kPa, x2 = 0.6235	924.4
332.96 K, 17030 kPa, x2 = 0.6235	926.91
332.96 K, 18038 kPa, x2 = 0.6235	929.31
332.96 K, 19028 kPa, x2 = 0.6235	931.63
332.96 K, 20027 kPa, x2 = 0.6235	933.85
332.96 K, 21009 kPa, x2 = 0.6235	936.05
332.96 K, 22009 kPa, x2 = 0.6235	938.17
332.96 K, 23042 kPa, x2 = 0.6235	940.35
332.96 K, 24041 kPa, x2 = 0.6235	942.44
332.96 K, 25008 kPa, x2 = 0.6235	944.38
332.97 K, 13046 kPa, x2 = 0.8091	858.28
332.97 K, 14016 kPa, x2 = 0.8091	863.75
332.97 K, 15002 kPa, x2 = 0.8091	869.06
332.97 K, 16027 kPa, x2 = 0.8091	874.28
332.97 K, 17017 kPa, x2 = 0.8091	879.06
332.97 K, 18042 kPa, x2 = 0.8091	883.74
332.97 K, 19003 kPa, x2 = 0.8091	887.97
332.97 K, 20021 kPa, x2 = 0.8091	892.23
332.97 K, 21029 kPa, x2 = 0.8091	896.31
332.97 K, 22019 kPa, x2 = 0.8091	900.16
332.97 K, 23004 kPa, x2 = 0.8091	903.83
332.97 K, 24041 kPa, x2 = 0.8091	907.6
332.97 K, 24998 kPa, x2 = 0.8091	910.97
332.98 K, 8015 kPa, x2 = 0.4268	929.54
332.98 K, 9023 kPa, x2 = 0.4268	930.86
332.98 K, 9996 kPa, x2 = 0.4268	932.09
332.98 K, 11004 kPa, x2 = 0.4268	933.37
332.98 K, 12004 kPa, x2 = 0.4268	934.65
332.98 K, 13005 kPa, x2 = 0.4268	935.88
332.98 K, 13019 kPa, x2 = 0.9311	744.38
